Usually IC50 stands for the point on the concentration scale where inhibition reaches its midpoint.

In this experiment the test system is Jurkat IL-2 Production. Nature of the experiment: Jurkat IL-2 Production Assay. The format is cell-based. The conditions noted are these: Homo sapiens, Jurkat cell (ATCC), 18-20 h incubation, PHA 5 μg/mL with 1% FBS, or PMA/Ionomycin with 30% FBS (table does not say which). Summed up: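 Jurkat cells were exposed to compound (0.25% DMSO final) for 10 min, then stimulated for 18–20 h at 37 °C. The 1% FBS condition used 5 μg/mL PHA; the high-serum condition (30% FBS) used 50 ng/mL PMA plus 500 ng/mL ionomycin. IC50 was derived from IL-2 production.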
Consider `CC(C)c1sc(-c2cccnc2)nc1-c1ccc2[nH]c(-c3c(F)cccc3Cl)cc2c1` [Example 180, 2-(2-Chloro-6-fluoro-phenyl)-5-(5-isopropyl-2-pyridin-3-yl-thiazol-4-yl)-1H-indole], for which the IC50 was 28 nM. The same measure for `Cc1cc(C#N)ccc1-c1ccc2[nH]c(-c3cccnc3C)cc2c1` [Example 147, methyl-4-(2-(2-methylpyridin-3-yl)-1H-indol-5-yl)benzonitrile]: 311 nM; for `COc1cc(C)c(-c2ccc3[nH]c(-c4c(F)cccc4F)cc3c2)cn1` [Example 113, 2-(2,6-Difluoro-phenyl)-5-(6-methoxy-4-methyl-pyridin-3-yl)-1H-indole]: 60 nM. The same measure for `CS(=O)(=O)c1ccc(-c2ccc3[nH]c(-c4c(F)cccc4F)cc3c2)c(C(F)(F)F)c1` [Example 96, 2-(2,6-Difluoro-phenyl)-5-(4-methanesulfonyl-2-trifluoromethyl-phenyl)-1H-indole]: 177 nM; for `COc1ccc(F)c(-c2cc3cc(-c4ccc(C#N)cc4C)ccc3[nH]2)c1F` [Example 142, 4-(2-(2,6-difluoro-3-methoxyphenyl)-1H-indol-5-yl)-3-methylbenzonitrile]: 167 nM; for `COc1cc(C)c(-c2ccc3[nH]c(-c4c(F)cccc4Cl)cc3c2)cn1` [Example 121, 2-(2-Chloro-6-fluoro-phenyl)-5-(6-methoxy-4-methyl-pyridin-3-yl)-1H-indole]: 12 nM. For `Cc1sc(-c2ccccn2)nc1-c1ccc2[nH]c(-c3ccccc3Cl)cc2c1` [Example 5, 2-(2-Chloro-phenyl)-5-(5-methyl-2-pyridin-2-yl-thiazol-4-yl)-1H-indole], the IC50 turned out to be 223 nM. The same measure for `Cc1sc(C2CC2)nc1-c1ccc2[nH]c(-c3ccccc3Cl)cc2c1` [Example 71]: 584 nM; for `COc1ccc(-c2ccc3[nH]c(-c4c(F)cccc4F)cc3c2)c(C)c1` [Example 28, 2-(2,6-Difluoro-phenyl)-5-(4-methoxy-2-methyl-phenyl)-1H-indole]: 123 nM; for `Cc1cc(N2CCNCC2)ncc1-c1ccc2[nH]c(-c3c(F)cccc3F)cc2c1` [Example 104, 2-(2,6-Difluoro-phenyl)-5-(4-methyl-6-piperazin-1-yl-pyridin-3-yl)-1H-indole]: 178 nM. The same measure for `CCn1nc(C(F)(F)F)cc1-c1ccc2[nH]c(-c3ccnc(OC)c3Cl)cc2c1` [Example 194, 2-(3-chloro-2-methoxypyridin-4-yl)-5-(1-ethyl-3-(trifluoromethyl)-1H-pyrazol-5-yl)-1H-indole]: 139 nM; for `COc1cc(C)c(-c2ccc3[nH]c(-c4cccc(C#N)c4F)cc3c2)cn1` [Example 152, 2-fluoro-3-(5-(6-methoxy-4-methylpyridin-3-yl)-1H-indol-2-yl)benzonitrile]: 731 nM; for `COc1ccc(-c2cc3cc(-c4ccc(C#N)cc4C)ccc3[nH]2)c(Cl)c1` [Example 132, 4-[2-(2-Chloro-4-methoxy-phenyl)-1H-indol-5-yl]-3-methyl-benzonitrile]: 319 nM.

The compound `COc1ccc(-c2cc3cc(-c4cc(C(F)(F)F)nn4C)ccc3[nH]2)c(C)n1` [Example 38, 2-(6-Methoxy-2-methyl-pyridin-3-yl)-5-(2-methyl-5-trifluoromethyl-2H-pyrazol-3-yl)-1H-indole] yielded an IC50 of 83 nM. In turn, `Cc1cc(C#N)ncc1-c1ccc2[nH]c(-c3cnccc3C)cc2c1` [Example 212, 4-Methyl-5-[2-(4-methyl-pyridin-3-yl)-1H-indol-5-yl]-pyridine-2-carbonitrile] had an IC50 of 447 nM. `COC(=O)c1ccc(-c2ccc3[nH]c(-c4c(F)cccc4F)cc3c2)c(C)c1` [Example 30] had an IC50 of 85 nM. Then `COc1cc(C)c(-c2ccc3[nH]c(-c4cnccc4C)cc3c2)cn1` [Example 216, 5-(6-Methoxy-4-methyl-pyridin-3-yl)-2-(4-methyl-pyridin-3-yl)-1H-indole], with 110 nM. Then `COc1ccc(-c2ccc3[nH]c(-c4c(F)cccc4F)cc3c2)c(Cl)c1` [Example 98, 5-(2-Chloro-4-methoxy-phenyl)-2-(2,6-difluoro-phenyl)-1H-indole], with 279 nM. The same measure for `CCn1nc(C(F)(F)F)cc1-c1ccc2[nH]c(-c3c(F)cccc3Cl)cc2c1` [Example 47, 2-(2-Chloro-6-fluoro-phenyl)-5-(2-ethyl-5-trifluoromethyl-2H-pyrazol-3-yl)-1H-indole]: 40 nM; for `CCn1nc(-c2cccnc2)nc1-c1ccc2[nH]c(-c3ccccc3Cl)cc2c1` [Example 185, 2-(2-Chloro-phenyl)-5-(2-ethyl-5-pyridin-3-yl-2H-[1,2,4]-triazol-3-yl)-1H-indole]: 65 nM. As for `COc1cc(C)c(-c2cc3cc(-c4ccc(C#N)cc4C)ccc3[nH]2)cn1` [Example 143, 4-(2-(6-methoxy-4-methylpyridin-3-yl)-1H-indol-5-yl)-3-methylbenzonitrile], the IC50 came to 182 nM. `COC(=O)c1ccc(-c2cc3cc(-c4nc(-c5cccnc5)sc4C)ccc3[nH]2)c(C)c1` [Example 65, Methyl-4-[5-(5-methyl-2-pyridin-3-yl-thiazol-4-yl)-1H-indol-2-yl]-benzoic acid methyl ester] came in with an IC50 of 71 nM. Then `CCn1nc(C(F)(F)F)cc1-c1ccc2[nH]c(-c3c(F)cc(OC)cc3Cl)cc2c1` [Example 203, 2-(2-chloro-6-fluoro-4-methoxyphenyl)-5-(1-ethyl-3-(trifluoromethyl)-1H-pyrazol-5-yl)-1H-indole], with 31 nM. The same measure for `Cc1cc(-c2ncco2)ccc1-c1ccc2[nH]c(-c3c(F)cccc3Cl)cc2c1` [Example 52, 2-(2-Chloro-6-fluoro-phenyl)-5-(2-methyl-4-oxazol-2-yl-phenyl)-1H-indole]: 62 nM. Regarding `Cc1cc(OC(F)(F)F)ccc1-c1ccc2[nH]c(-c3c(F)cccc3F)cc2c1` [Example 100, 2-(2,6-Difluoro-phenyl)-5-(2-methyl-4-trifluoromethoxy-phenyl)-1H-indole], the concentration for half-maximal inhibition (IC50) is 307 nM. The same measure for `Cc1c(-c2c(F)cccc2F)[nH]c2ccc(-c3cc(C(F)(F)F)nn3C)cc12` [Example 227]: 284 nM; for `Cc1cc(S(=O)(=O)N(C)C)ccc1-c1ccc2[nH]c(-c3c(F)cccc3F)c(C)c2c1` [Example 228, 4-[2-(2,6-Difluoro-phenyl)-3-methyl-1H-indol-5-yl]-3,N,N-trimethyl-benzenesulfonamide]: 115 nM; for `COc1ccc(-c2ccc3[nH]c(-c4c(F)cccc4F)cc3c2)c(OC)c1` [Example 90, 2-(2,6-Difluoro-phenyl)-5-(2,4-dimethoxy-phenyl)-1H-indole]: 177 nM.

As for `CCn1nc(C(F)(F)F)cc1-c1ccc2[nH]c(C3CCN(C(C)=O)CC3)cc2c1` [Example 200, 1-(4-(5-(1-ethyl-3-(trifluoromethyl)-1H-pyrazol-5-yl)-1H-indol-2-yl)piperidin-1-yl)ethanone], 220 nM corresponded to half-maximal inhibition (IC50). Then `COc1cc(C)c(-c2ccc3[nH]c(-c4c(F)cccc4F)c(C)c3c2)cn1` [Example 229, 2-(2,6-Difluoro-phenyl)-5-(6-methoxy-4-methyl-pyridin-3-yl)-3-methyl-1H-indole], with 164 nM. Then `CCn1nc(-c2ccccn2)cc1-c1ccc2[nH]c(-c3c(F)cccc3F)cc2c1` [Example 16, 2-(2,6-Difluoro-phenyl)-5-(2-ethyl-5-pyridin-2-yl-2H-pyrazol-3-yl)-1H-indole], with 211 nM; and `Cn1nc(-c2cccnc2)cc1-c1ccc2[nH]c(-c3cccc(Cl)c3Cl)cc2c1` [Example 85, 2-(2,3-Dichloro-phenyl)-5-(2-methyl-5-pyridin-3-yl-2H-pyrazol-3-yl)-1H-indole], with 149 nM; and `CCn1nc(-c2cccnc2)nc1-c1ccc2[nH]c(-c3c(F)cccc3Cl)cc2c1` [Example 124, 2-(2-Chloro-6-fluoro-phenyl)-5-(2-ethyl-5-pyridin-3-yl-2H-[1,2,4]triazol-3-yl)-1H-indole], with 11 nM. Then `Cc1sc(C(C)C)nc1-c1ccc2[nH]c(-c3c(F)cccc3F)cc2c1` [Example 70, 2-(2,6-Difluoro-phenyl)-5-(2-isopropyl-5-methyl-thiazol-4-yl)-1H-indole], with 356 nM; and `COc1cc(F)c(-c2cc3cc(-c4cc(C(F)(F)F)nn4C)ccc3[nH]2)c(Cl)c1` [Example 201, 2-(2-chloro-6-fluoro-4-methoxyphenyl)-5-(1-methyl-3-(trifluoromethyl)-1H-pyrazol-5-yl)-1H-indole], with 35 nM; and `Cn1nc(-c2cccnc2)cc1-c1ccc2[nH]c(-c3ccccc3Cl)cc2c1` [Example 77, 2-(2-Chloro-phenyl)-5-(2-methyl-5-pyridin-3-yl-2H-pyrazol-3-yl)-1H-indole], with 169 nM. On to `Cc1cc(S(=O)(=O)N(C)C)ccc1-c1ccc2[nH]c(C3CCCCC3)cc2c1` [Example 223, 4-(2-cyclohexyl-1H-indol-5-yl)-N,N,3-trimethylbenzenesulfonamide], for which half-maximal inhibition (IC50) required 54 nM. The same measure for `Cc1cc(-c2ncco2)ncc1-c1ccc2[nH]c(-c3c(F)cccc3F)cc2c1` [Example 208, 2-(2,6-Difluoro-phenyl)-5-(4-methyl-6-oxazol-2-yl-pyridin-3-yl)-1H-indole]: 97 nM; for `COc1ccc(-c2ccc3[nH]c(-c4c(F)cccc4F)cc3c2)c(OC)n1` [Example 95, 2-(2,6-Difluoro-phenyl)-5-(2,6-dimethoxy-pyridin-3-yl)-1H-indole]: 994 nM.

In turn, `CCn1nc(-c2cccnc2)cc1-c1ccc2[nH]c(-c3ccccc3Cl)cc2c1` [Example 78, 2-(2-Chloro-phenyl)-5-(2-ethyl-5-pyridin-3-yl-2H-pyrazol-3-yl)-1H-indole] had an IC50 of 95 nM.

In the case of `Cc1sc(C2CC2)nc1-c1ccc2[nH]c(-c3c(F)cccc3F)cc2c1` [Example 72, 5-(2-Cyclopropyl-5-methyl-thiazol-4-yl)-2-(2,6-difluoro-phenyl)-1H-indole], the IC50 was 397 nM.

(Values after patent US20110071150A1 (priority 2009, published 2011).)
